Entries after “also recorded” stand apart in the source; their conditions may differ. Structures can show the parent of a compound that is named as a salt.

The subject of the assay is fibromyalgia syndrome model rats. Put plainly: Rat fibromyalgia syndrome model (acidic saline), allodynia by von Frey filament. The class given is in vivo. To be noted: for allodynia (50% response threshold) vs acidic saline+distilled water group: Day 7, pregabalin 10 mg/kg. The method, then: To prepare a fibromyalgia syndrome model rat (Sluka et al., Journal of Pharmacology and Experimental Therapeutics, vol. 302, p. 1146-1150, 2002; Nagakura et al., Pain, vol. 146, p. 26-33, 2009; Sluka et al., Pain, vol. 146, p. 3-4, 2009), which is generally employed widely in basic research for fibromyalgia syndrome, acidic saline (100 μL) adjusted to pH 4.0 was intramuscularly injected to the gastrocnemius muscle of the right hind paw of Crl: CD(SD) rat (6 to 7 weeks old, male; from CHARLES RIVER LABORATORIES JAPAN, INC.) under continuous inhalation anesthesia with isoflurane, twice (once in each day of Day 1 and Day 6, wherein Day 1 was the date on which the acidic saline was initially administrated). The rats thus prepared were raised in a breeding room controlled at an indoor temperature of 21 to 25° C. and an indoor humidity of 40 to 70% under the conditions of voluntary intake of food and water. In the same manner, rats to which physiological saline in place of acidic saline was intramuscularly injected were raised. The rats thus raised and not afflicted with fibromyalgia syndrome (“physiological saline+distilled water” group in FIG. 13) were also used in the experiment.
Seven days after the initial administration of acidic saline, allodynia in each rat was measured. […] Note that, measurement of allodynia was performed by use of a von Frey filament (from North Coast Medical) in accordance with the method described in a known literature (Chaplan et al., Journal of Neuroscience Methods, vol. 53, p. 55-63, 1994).
The fibromyalgia syndrome model rats thus obtained are divided into groups such that the 50% response threshold (mean value of the right hind paw and the left hind paw) of the individual groups became equal, and a test compound was administered to the fibromyalgia syndrome model rats on Day 7 after the initial administration of acidic saline.
The compound of Example 11 (0.1 to 10 mg/kg) was dissolved in distilled water and then orally administered to fibromyalgia syndrome model rats (“acidic saline+the compound of Example 11” in FIG. 13). Pregabalin serving as a positive control (10 mg/kg; from KEMPROTEC) was dissolved in distilled water and then orally administered (“acidic saline+pregabalin” in FIG. 13). As a control, distilled water was orally administered to fibromyalgia syndrome model rats (“acidic saline+distilled water” in FIG. 13). Furthermore, distilled water was orally administered to rats not afflicted with fibromyalgia syndrome (“physiological saline+distilled water” in FIG. 13). One hour and three hours after the oral administration, allodynia in individual rats was measured to evaluate an analgesic action. At this time, the 50% response threshold value in the measurement of allodynia before oral administration of the test compound on Day 7 after initial administration of acidic saline was defined as the pre-value.
To prepare a fibromyalgia syndrome model rat (Sluka et al., Journal of Pharmacology and Experimental Therapeutics, vol. 302, p. 1146-50, 2002; Nagakura et al., Pain, vol. 146, p. 26-33, 2009; Sluka et al., Pain, vol. 146, p. 3-4, 2009), which is generally employed widely in basic research for fibromyalgia syndrome, acidic saline (100 μL) adjusted to pH 4.0 was intramuscularly injected to the gastrocnemius muscle of the right hind paw of Slc: (SD) rats (6 to 7 weeks old, male; from Japan SLC, Inc.) under continuous inhalation anesthesia with isoflurane, twice (once in each of Day 1 and Day 6, wherein Day 1 was the initial administration date of the acidic saline). The rats thus prepared were raised in a breeding room controlled at an indoor temperature of 21 to 25° C. and an indoor humidity of 40 to 70% under the conditions of voluntary intake of food and water. In the same manner, rats to which physiological saline was intramuscularly injected in place of acidic saline were raised. […]

In the case of `CN(C)C1CCN(C(=O)CCc2nccn2C)CC1` [Comparative Example 1, 1-(4-(dimethylamino)piperidin-1-yl)-3-(1-methyl-1H-imidazol-2-yl)propan-1-one hydrochloride], the “allodynia (50% response threshold) vs acidic saline+distilled water group” value (Comparative Example 8: oral, Comparative Example 1 0.1 to 1 mg/kg, 1, 2 and 3 h after dosing, hydrochloride) is given as “statistically significantly improved; also recorded: statistically significant analgesic action”. In addition, the “persistence of analgesic action” value (oral administration) is “tended to significantly decrease 3 hours after oral administration”.
Consider `CN(C)C1CCN(C(=O)C[C@H](O)c2nccn2C)CC1` [Example 11, (S)-1-(4-(dimethylamino)piperidin-1-yl)-3-hydroxy-3-(1-methyl-1H-imidazol-2-yl)propan-1-one], for which the “allodynia (50% response threshold) vs acidic saline+distilled water group” value (Example 15: oral, Example 11 0.1 to 10 mg/kg, 1 and 3 h after dosing) is “statistically significantly improved; also recorded: statistically significant analgesic action”. Further, the “time the analgesic action lasted after oral administration” value (oral administration) turned out to be 3 h.

These data come from patent US10173999B2, “Cyclic amine derivative and pharmaceutical use thereof” (Toray Industries, Inc., priority 2015, dated 2019).
